Data on 1 substance can be found in US20230137491A1, “PEPTIDES AND USES THEREOF” (SINTICA BIOTECH SOCIETÀ A RESPONSABILITÀ LIMITATA …, priority 2020, published 2023).

Non-standard residues stand in square brackets, D forms with d. methoxy‑PEG 20 kDa = linear 20 kDa methoxy-PEG conjugated through D-Cys sulfur

Experiment [1] deals with SKMel28 melanoma cell lines overexpressing CD271. Nature of the experiment: MTT assay in cells overexpressing CD271 (CD271 viral vector). It is filed as cell-based, human. Particulars: SKMel28 with CD271 viral vector. The source says:
FIG. 6. The peptide reduces melanoma cell viability through CD271. WM115 melanoma cell line was transiently transfected with CD271 siRNA, as shwon by western blotting. MTT assay was used to measure cell viability after treatment with the peptide (XYZ) or the diluent in siRNA and scramble cells. SKme128 melanoma cell line was transiently transfected with CD271 mRNA, as shown by western blotting. MTT assay was used to measure cell viability after treatment with the peptide (XYZ) or the diluent in siRNA and scramble cells. Student's t-test was used for comparison of the means.
5×10^3 cells/well were seeded in 96-well culture plates. At different time points, cells were incubated with 0.5% MTT (3-(4,5-dimethylthiazol-2-yl)-2,5-diphenyltetrazolium bromide) for 4 h at 37° C. and then dissolved with 100 μl Isopropanol with 0.04N HCl. The plate was read at 560 nm with a reference filter of 650 nm. Results are expressed as viability percentage, as compared to control.
Skme128 cell line was plated according to the liquid overlay method. After 24 h, cells were transduced by infection with viral supernatant generated by CD271-LNSN packaging cells or by LNSN packaging cells (kindly provided from F. Mavilio) in appropriate medium for melanoma, as described previously in the presence of polybrene (8 μg/ml). 48 h after infection cells were lysed for WB analysis or seeded for MTT assay.
(In general: Formazan colour is commonly taken as a measure of viable cells.)

In experiment [2] the test system is melanoma cells derived from patient with BRAF mutation in zebrafish. Nature of the experiment: Zebrafish xenotransplant with melanoma cells from a patient with BRAF mutation. Particulars: embryos with metastasis counted 5 days post injection, versus control. It is filed as in vivo. The protocol:
FIG. 11. The peptide reduces initial metastasis formation in zebrafish injected with melanoma cells. Metastatic melanoma cells from a patient with BRAF mutation were treated with the peptide, DTIC, the peptide in combination with DTIC, DTIC alone, BRAF inhibitor or left untreated. They were stained with Vibrant Cell Labelling Solution (red) and injected into the yolk of transparent zebrafish larvae and monitored. The number of embryos with metastasis was counted at 5 days post injection.
The use of melanoma biopsies was approved by the ethical committee (Comitato Etico dell'Area Vasta Emilia Nord). Biopsies were taken from the University Hospital Policlinico of Modena and patient gave inform consent. […]
Zebrafish handling was performed at the Zebrafish Centre of the University of Padova, Italy, under ethical committee (OPBA) authorization 407/2015-PR. […] Zebrafishes were monitored daily and documented from 1 day post injection (dpi) up to 1 week (experimental endpoint). […]
For xenotransplantation, albino embryos were mechanically dechorionated at 2 days post-fertilisation, anesthetized with tricaine 0.16 mg/ml and placed along plastic lanes immersed in 2% methylcellulose/PBS. […] Stained cells were loaded in a glass capillary needle and microinjected into the yolk (about 50 cells/embryo), Xenotransplanted embryos were monitored daily and documented from one day post injection up to one week.

As for “Ac-DMet-DLeu-Gly-DIle-DIle-DAla-Gly-DLys-DAsn-DSer-Gly-DCys-NH2 with a linear 20 kDa methoxy-PEG polymer conjugated to the D-Cys residue through the sulfur atom of the latter (Ac-[dM][dL]G[dI][dI][dA]G[dK][dN][dS]G[dC](methoxy‑PEG 20 kDa)-NH2) [XYZ]”, the “cell death (MTT assay) in CD271-overexpressing cells” value in experiment [1] was “induces cell death to a greater extent”. In addition, the “metastasis formation in zebrafish” value in experiment [2] was “reduces metastasis formation”.
